Assay results as given in patent publication US12643875B2, “Antibacterial compounds” (The Penn State Research Foundation, priority 2020, dated 2026).
Converted amounts (≈) assume the structure as drawn. Read-outs that look alike come from different tables or passages of the source.

Assays:
[1] = system: bacteria; experiment: Bacterial growth inhibition, broth microdilution (CLSI M07-A10); type: cell-based; settings: for IC50: growth inhibition
Excerpt: Assay: Broth microdilution by the method of: Clinical and Laboratory Standards Institute, Ed., Methods for dilution antimicrobial susceptibility tests for bacteria that grow aerobically: M07-A10; approved standard (Committee for Clinical Laboratory Standards, Wayne, PA, 10. ed., 2015), Documents/Clinical and Laboratory Standards Institute.

[2] = system: CYP; experiment: HLM CYP inhibition
[3] = system: CYP (isoform not given); experiment: HLM CYP inhibition; settings: human, human liver microsomes
[4] = Serum binding; type: in vitro ADME
[5] = system: HUVEC (Human Umbilical Vein Endothelial Cells); experiment: Cytotoxicity, propidium iodide fluorescence, HuVEC cells; type: cell-based; parameters: key: % cytotoxicity relative to positive control (100% cell lysis); settings: 24 h, relative to positive control (100% cell lysis)
Experimental: (§1) Assay: HUVEC (Human Umbilical Vein Endothelial Cells) and HeLa (cervical cancer cells) were seeded into 96-well culture plates at a density of 1.5×10^5 cells/ml in endothelial cell or DMEM growth medium, supplemented with 10% fetal bovine serum and no antibiotic. Cells were cultured for 24 h before assay setup. Compounds were diluted in the corresponding growth medium and tested in triplicate at 10× and 20× the minimum bacterial growth inhibitory concentrations. Growth media in the 96-well plate was aspirated off and replaced with media containing the test compounds or DMSO (0.5%, vol/vol). The plates were incubated at 37° C. in a 5% CO2 incubator for 24 h. A positive control sample was prepared by replacing media in designated wells with a solution containing a cell lysis reagent. Propidium iodide was then added at 5 μM/well and the plate was incubated for 10 minutes at room temperature. Fluorescence was then recorded using a SpectraMax i3 (Molecular Devices) at λex 535 nm/λem 617 nm. Cytotoxicity was determined by quantifying the fluorescence values for each compound relative to the positive control (100% cell lysis). For selected exemplified compounds, cytotoxicity against HeLa and HuVEC cells was measured at 10× and 20×MIC.

[6] = system: HeLa (cervical cancer cells); experiment: Cytotoxicity, propidium iodide fluorescence, HeLa cells; type: cell-based, Human; parameters: key: % cytotoxicity relative to positive control (100% cell lysis); settings: 24 h, relative to positive control (100% cell lysis)
Experimental: as §1

[7] = Plasma binding; type: in vitro ADME; settings: for free compound: serum and plasma binding
[8] = system: σ^E-mediated transcription; experiment: σ^E-mediated transcription inhibition, E. coli reporter assay; type: cell-based; settings: Escherichia coli
Experimental: The selected exemplified compounds were tested for inhibition of σ^E-mediated transcription using an E. coli reporter assay according to the protocol described in U.S. Pat. No. 8,962,550, which is incorporated herein by reference.

[9] = Solubility in growth medium of the transcription assay; type: physicochemical; parameters: key: *: poor solubility in test medium
[10] = system: CYP
[11] = Stability in human liver microsomes (intrinsic clearance)

With `Cc1cc(F)ccc1-c1cccc(-c2cn(C3CCSCC3)nn2)c1` [Compound 39735] the MIC [1] was 35 µg/mL (≈ 99 µM).

`Cc1cc(F)ccc1-c1cccc(Nc2ccc([N+](=O)[O-])c3nonc23)n1` [Compound 39722] gave an MIC [1] of 73 µg/mL (≈ 200 µM).

`Cc1cc(F)ccc1-c1ccc(-c2cn(-c3ccncc3)nn2)cc1` [Compound 39730] showed an MIC [1] of 66 µg/mL (≈ 200 µM).

In the case of `Cc1cc(F)ccc1-c1cccc(NC(=O)c2cccc(Cl)c2)c1` [Compound 39732], the MIC [1] is reported as 8.5 µg/mL (≈ 25 µM) and the IC50 [1] is reported as 5.9 µg/mL (≈ 17.4 µM).

Work on `Cc1cc(F)ccc1-c1cc(Nc2ccccc2)ccn1` [Compound 39712] yielded an MIC [1] of 21 µg/mL (≈ 75.5 µM).

Work on `Cc1cc(F)ccc1-c1cccc(NS(=O)(=O)c2ccccc2)n1` [Compound 39705] yielded an MIC [1] of 34 µg/mL (≈ 99.3 µM) and an IC50 [1] of 16 µg/mL (≈ 46.7 µM).

Compound `c1cc(Nc2ccncc2)nc(C2CCCCC2)c1` [Compound 39710] has an MIC [1] of 51 µg/mL (≈ 201 µM).

Work on `Cc1cc(F)ccc1-c1cc(NC(=O)c2ccco2)ccn1` [Compound 39717] yielded an MIC [1] of 50 µg/mL (≈ 169 µM).

With `O=C(Nc1cccc(-c2ccccc2)c1)c1cccc(C(F)(F)F)c1` [Compound 39751] the “Human Liver Microsomes Intrinsic Clearance (CLint)” value was 4.35 mL/min/g liver, the “inhibition of CYP” value [2] was “no detectable inhibition” and the IC50 [3] was > 33 µM. The MIC [1] was 8.5 µg/mL (≈ 24.9 µM), the IC50 [1] was 4.6 µg/mL (≈ 13.5 µM) and the “% serum binding” value [4] was 99.9%. The “Cytotoxicity at 10× MIC HuVEC” value [5] was 17, the “Cytotoxicity at 20× MIC HuVEC” value [5] was 14 and the “Cytotoxicity at 10× MIC HeLa” value [6] was 9. For the same compound, the “Cytotoxicity at 20× MIC HeLa” value [6] was 7, the “% plasma binding” value [7] was 99.9% and the free compound [7] was “no detectable free compound”. It also gave an IC50 [8] of 4.3 µg/mL (≈ 12.6 µM).

In the case of `c1ccc(-c2cccc(Nc3ccncc3)n2)cc1` [Compound 39711], the MIC [1] is reported as 6.2 µg/mL (≈ 25.1 µM) and the IC50 [1] is reported as 3.7 µg/mL (≈ 15 µM).

For `Cc1cc(F)ccc1-c1cccc(Nc2ccncc2)c1` [Compound 39744], the MIC [1] was 14 µg/mL (≈ 50.3 µM).

`Cc1cc(F)ccc1-c1cccc(Nc2ccc(C#C[Si](C)(C)C)cc2)n1` [Compound 39715] gave an MIC [1] of 75 µg/mL (≈ 200 µM).

For `Cc1cc(F)ccc1-c1cccc(NC(=O)c2ccccc2)c1` [Compound 39731], the “Human Liver Microsomes Intrinsic Clearance (CLint)” value was 2.12 mL/min/g liver, the “inhibition of CYP” value [2] was “no detectable inhibition” and the IC50 [3] was > 33 µM. The MIC [1] was 7.6 µg/mL (≈ 24.9 µM), the IC50 [1] was 1.6 to 3.4 µg/mL (≈ 5.24 to 11.1 µM) and the “% serum binding” value [4] was 99.7%. For the same compound, the “Cytotoxicity at 10× MIC HuVEC” value [5] was 14, the “Cytotoxicity at 20× MIC HuVEC” value [5] was 14 and the “Cytotoxicity at 10× MIC HeLa” value [6] was 8. For the same compound, the “Cytotoxicity at 20× MIC HeLa” value [6] was 10, the “% plasma binding” value [7] was 99.8% and the “solubility in test medium” value [9] was “*”. For the same compound, the IC50 [8] was ~60 µg/mL (≈ 196 µM).

Work on `c1ccc(COc2ccc(-c3cccc(Nc4ccncc4)n3)cc2)cc1` [Compound 39718] yielded an MIC [1] of 35 µg/mL (≈ 99 µM).

Work on `Cc1cc(F)ccc1-c1cccc(Nc2ccc(N=[N+]=[N-])cc2)n1` [Compound 39714] yielded an MIC [1] of 64 µg/mL (≈ 200 µM).

Work on `Cc1cc(F)ccc1-c1cccc(Nc2ccncc2)n1` [Compound 2170] yielded an MIC [1] of 14 µg/mL (≈ 50.1 µM) and an IC50 [1] of 6.8 µg/mL (≈ 24.3 µM).

`Cc1cc(F)ccc1-c1cccc(NS(=O)(=O)c2cccc3c(N(C)C)cccc23)n1` [Compound 39713] gave an MIC [1] of 87 µg/mL (≈ 200 µM).

For `c1ccc(-c2cccc(-c3cn(-c4ccncc4)nn3)c2)cc1` [Compound 39748], the “Human Liver Microsomes Intrinsic Clearance (CLint)” value was 1.28 mL/min/g liver, the IC50 [3] was 1.48 µM and the MIC [1] was 7.6 µg/mL (≈ 25.5 µM). The IC50 [1] was 2.6 µg/mL (≈ 8.71 µM), the “% serum binding” value [4] was 99.7% and the “Cytotoxicity at 10× MIC HuVEC” value [5] was 15. The “Cytotoxicity at 20× MIC HuVEC” value [5] was 21, the “Cytotoxicity at 10× MIC HeLa” value [6] was 14 and the “Cytotoxicity at 20× MIC HeLa” value [6] was 14. For the same compound, the “% plasma binding” value [7] was 99.7% and the IC50 [8] was 2.6 µg/mL (≈ 8.71 µM).

With `Cc1cc(F)ccc1-c1cccc(Nc2ccccc2)n1` [Compound 39704] the “Human Liver Microsomes Intrinsic Clearance (CLint)” value was 5.38 mL/min/g liver, the IC50 [3] was 13.5 µM and the MIC [1] was 1.7 to 3.5 µg/mL (≈ 6.11 to 12.6 µM). For the same compound, the IC50 [1] was 0.9 to 2.8 µg/mL (≈ 3.23 to 10.1 µM), the “% serum binding” value [4] was 100% and the “IC50 for CYP inhibition over the MIC” value [10] was “more than 5 ×”. For the same compound, the “Cytotoxicity at 10× MIC HuVEC” value [5] was 15, the “Cytotoxicity at 20× MIC HuVEC” value [5] was 21 and the “Cytotoxicity at 10× MIC HeLa” value [6] was 11. The “Cytotoxicity at 20× MIC HeLa” value [6] was 11, the “% plasma binding” value [7] was 99.9% and the free compound [7] was “no detectable free compound”. For the same compound, the “solubility in test medium” value [9] was “*” and the IC50 [8] was 11 µg/mL (≈ 39.5 µM).

`Cc1cc(F)ccc1-c1cccc(-c2cn(-c3cccc4ncccc34)nn2)c1` [Compound 39739] showed an MIC [1] of 38 µg/mL (≈ 99.9 µM).

Work on `Cc1cc(F)ccc1-c1cccc(NC(=O)c2ccco2)c1` [Compound 39733] yielded an MIC [1] of 29 µg/mL (≈ 98.2 µM) and an IC50 [1] of 16 µg/mL (≈ 54.2 µM).

Compound `Cc1cc(F)ccc1-c1cccc(NC(=O)c2ccccc2)n1` [Compound 39721] has an MIC [1] of 20 µg/mL (≈ 65.3 µM).

For `Cc1cc([N+](=O)[O-])ccc1-c1cccc(Nc2ccncc2)n1` [Compound 39709], the MIC [1] was 117 µg/mL (≈ 382 µM).

With `Cc1cc(F)ccc1-c1cccc(-c2cn(-c3ccncc3)nn2)c1` [Compound 39724] the “Human Liver Microsomes Intrinsic Clearance (CLint)” value was 0.37 mL/min/g liver, the IC50 [3] was 3.55 µM and the MIC [1] was 3.3 to 4.1 µg/mL (≈ 9.99 to 12.4 µM). The IC50 [1] was 1.6 to 2.3 µg/mL (≈ 4.84 to 6.96 µM), the “% serum binding” value [4] was 94.6% and the “Cytotoxicity at 10× MIC HuVEC” value [5] was 16. For the same compound, the “Cytotoxicity at 20× MIC HuVEC” value [5] was 19, the “Cytotoxicity at 10× MIC HeLa” value [6] was 11 and the “Cytotoxicity at 20× MIC HeLa” value [6] was 14. The “% plasma binding” value [7] was 99.5% and the IC50 [8] was 6.6 µg/mL (≈ 20 µM).

For `Cc1ncc2n1-c1ccc(Cl)cc1C(c1ccccc1F)=NC2` [Midazolam control, Midazolam], the “Human Liver Microsomes Intrinsic Clearance (CLint)” value [11] was 9.04 mL/min/g liver.

With `Cc1cc(F)ccc1-c1cccc(Nc2ccc(S(C)(=O)=O)cc2)c1` [Compound 39734] the MIC [1] was 28 µg/mL (≈ 78.8 µM) and the IC50 [1] was 22 µg/mL (≈ 61.9 µM).

For `Cc1cc(F)ccc1-c1cccc(NC(=O)c2cccc(Cl)c2)n1` [Compound 39720], the “Human Liver Microsomes Intrinsic Clearance (CLint)” value was 1.51 mL/min/g liver, the MIC [1] was 4.3 µg/mL (≈ 12.6 µM) and the IC50 [1] was 2.4 µg/mL (≈ 7.04 µM). For the same compound, the “Cytotoxicity at 10× MIC HuVEC” value [5] was 10, the “Cytotoxicity at 20× MIC HuVEC” value [5] was 10 and the “Cytotoxicity at 10× MIC HeLa” value [6] was 8. The “Cytotoxicity at 20× MIC HeLa” value [6] was 8, the “solubility in test medium” value [9] was “*” and the IC50 [8] was ~34.1 µg/mL (≈ 100 µM).
